Reference: the supplement of paper PMC10307832

Key:
Experiment in all cases: relative viability (nuclei count vs DMSO), 5 days (fraction); higher = more cells survive
[1] = system: NCI-H520
Method in brief: (§1)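 Lung cancer cell lines were pin-tool dosed in 1536-well plates on the day after seeding, with either a lone drug or a fixed anchor-drug dose plus five library-drug doses (not always all listed) in √10 steps. Nuclei were counted on 4× images after 5 days. Relative viability is the ratio of treated-well to vehicle-well nuclei counts, with each value a median of duplicate plates.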

[2] = system: NCI-H661
Method in brief: as §1

[3] = system: H3255
Method in brief: as §1

[4] = system: NCI-H1975
Method in brief: as §1

[5] = system: NCI-H1944
Method in brief: as §1

[6] = system: COR-L 105
Method in brief: as §1

[7] = system: SK-LU-1
Method in brief: as §1

[8] = system: NCI-H1395
Method in brief: as §1

[9] = system: NCI-H1734
Method in brief: as §1

[10] = system: NCI-H1666
Method in brief: as §1

[11] = system: CAL-12T
Method in brief: as §1

[12] = system: NCI-H838
Method in brief: as §1

[13] = system: NCI-H647
Method in brief: as §1

[14] = system: NCI-H1563
Method in brief: as §1

[15] = system: NCI-H2228
Method in brief: as §1

[16] = system: PC-14
Method in brief: as §1

[17] = system: NCI-H3122
Method in brief: as §1

[18] = system: PC-3 [JPC-3]
Method in brief: as §1

[19] = system: HCC-366
Method in brief: as §1

[20] = system: LC-2-ad
Method in brief: as §1

[21] = system: HARA
Method in brief: as §1

[22] = system: NCI-H1993
Method in brief: as §1

[23] = system: LU99A
Method in brief: as §1

[24] = system: HCC-15
Method in brief: as §1

## CCCCCCCCCCCC1=C(O)C(=O)C=C(O)C1=O [Embelin] + Cc1nc(NC(=O)N2CCC[C@H]2C(N)=O)sc1-c1ccnc(C(C)(C)C(F)(F)F)c1 [Alpelisib] (partner 2 µM)
[1]; first compound 0.08 µM
  relative viability: 1.05
[1]; first compound 0.8 µM
  relative viability: 1.06
[1]; first compound 2.53 µM
  relative viability: 0.896
[1]; first compound 8 µM
  relative viability: 0.901
[2]; first compound 0.08 µM
  relative viability: 0.612
[2]; first compound 0.8 µM
  relative viability: 0.97
[2]; first compound 2.53 µM
  relative viability: 0.92
[2]; first compound 8 µM
  relative viability: 0.756
[3]; first compound 0.08 µM
  relative viability: 0.935
[3]; first compound 0.8 µM
  relative viability: 0.804
[3]; first compound 2.53 µM
  relative viability: 0.766
[3]; first compound 8 µM
  relative viability: 0.653
[4]; first compound 0.08 µM
  relative viability: 0.663
[4]; first compound 0.8 µM
  relative viability: 0.674
[4]; first compound 2.53 µM
  relative viability: 0.696
[4]; first compound 8 µM
  relative viability: 0.674
[5]; first compound 0.08 µM
  relative viability: 0.818
[5]; first compound 0.8 µM
  relative viability: 0.925
[5]; first compound 2.53 µM
  relative viability: 0.875
[5]; first compound 8 µM
  relative viability: 0.828
[6]; first compound 0.08 µM
  relative viability: 0.951
[6]; first compound 0.8 µM
  relative viability: 1.15
[6]; first compound 2.53 µM
  relative viability: 0.968
[6]; first compound 8 µM
  relative viability: 1.31
[7]; first compound 0.08 µM
  relative viability: 1.29
[7]; first compound 0.8 µM
  relative viability: 1.31
[7]; first compound 2.53 µM
  relative viability: 1.37
[7]; first compound 8 µM
  relative viability: 0.904
[8]; first compound 0.08 µM
  relative viability: 1.06
[8]; first compound 0.8 µM
  relative viability: 1.24
[8]; first compound 2.53 µM
  relative viability: 0.982
[8]; first compound 8 µM
  relative viability: 1.1
[9]; first compound 0.08 µM
  relative viability: 0.758
[9]; first compound 0.8 µM
  relative viability: 0.726
[9]; first compound 2.53 µM
  relative viability: 0.745
[9]; first compound 8 µM
  relative viability: 0.741
[10]; first compound 0.08 µM
  relative viability: 1.01
[10]; first compound 0.8 µM
  relative viability: 1.09
[10]; first compound 2.53 µM
  relative viability: 1.05
[10]; first compound 8 µM
  relative viability: 0.955
[11]; first compound 0.08 µM
  relative viability: 1.24
[11]; first compound 0.8 µM
  relative viability: 1.49
[11]; first compound 2.53 µM
  relative viability: 1.31
[11]; first compound 8 µM
  relative viability: 1.33
[12]; first compound 0.08 µM
  relative viability: 1.01
[12]; first compound 0.8 µM
  relative viability: 1
[12]; first compound 2.53 µM
  relative viability: 1.12
[12]; first compound 8 µM
  relative viability: 1.11
[13]; first compound 0.08 µM
  relative viability: 1.29
[13]; first compound 0.8 µM
  relative viability: 1.15
[13]; first compound 2.53 µM
  relative viability: 1.45
[13]; first compound 8 µM
  relative viability: 1.28
[14]; first compound 0.08 µM
  relative viability: 0.845
[14]; first compound 0.8 µM
  relative viability: 0.978
[14]; first compound 2.53 µM
  relative viability: 0.856
[14]; first compound 8 µM
  relative viability: 0.913
[15]; first compound 0.08 µM
  relative viability: 0.705
[15]; first compound 0.8 µM
  relative viability: 0.781
[15]; first compound 2.53 µM
  relative viability: 0.793
[15]; first compound 8 µM
  relative viability: 0.729
[16]; first compound 0.08 µM
  relative viability: 0.9
[16]; first compound 0.8 µM
  relative viability: 0.973
[16]; first compound 2.53 µM
  relative viability: 0.976
[16]; first compound 8 µM
  relative viability: 0.959
[17]; first compound 0.08 µM
  relative viability: 0.746
[17]; first compound 0.8 µM
  relative viability: 0.697
[17]; first compound 2.53 µM
  relative viability: 0.728
[17]; first compound 8 µM
  relative viability: 0.737
[18]; first compound 0.08 µM
  relative viability: 1.03
[18]; first compound 0.8 µM
  relative viability: 0.988
[18]; first compound 2.53 µM
  relative viability: 1.08
[18]; first compound 8 µM
  relative viability: 1.05
[19]; first compound 0.08 µM
  relative viability: 0.411
[19]; first compound 0.8 µM
  relative viability: 0.418
[19]; first compound 2.53 µM
  relative viability: 0.412
[19]; first compound 8 µM
  relative viability: 0.427
[20]; first compound 0.08 µM
  relative viability: 0.891
[20]; first compound 0.8 µM
  relative viability: 0.913
[20]; first compound 2.53 µM
  relative viability: 0.716
[20]; first compound 8 µM
  relative viability: 0.892
[21]; first compound 0.08 µM
  relative viability: 0.848
[21]; first compound 0.8 µM
  relative viability: 0.887
[21]; first compound 2.53 µM
  relative viability: 0.989
[21]; first compound 8 µM
  relative viability: 0.702
[22]; first compound 0.08 µM
  relative viability: 0.753
[22]; first compound 0.8 µM
  relative viability: 0.755
[22]; first compound 2.53 µM
  relative viability: 0.649
[22]; first compound 8 µM
  relative viability: 0.658
[23]; first compound 0.08 µM
  relative viability: 0.558
[23]; first compound 0.8 µM
  relative viability: 0.533
[23]; first compound 2.53 µM
  relative viability: 0.561
[23]; first compound 8 µM
  relative viability: 0.496
[24]; first compound 0.08 µM
  relative viability: 0.882
[24]; first compound 0.8 µM
  relative viability: 0.864
[24]; first compound 2.53 µM
  relative viability: 0.957
[24]; first compound 8 µM
  relative viability: 0.995
